Laboratory results reported in ChEMBL document CHEMBL3887005, “N-cyclopropyl-N-piperidinyl-amides, pharmaceutical compositions containing them, and uses thereof” (2016).

Target: T1, Glucose-dependent insulinotropic receptor (Homo sapiens, UniProt Q8TDV5)
T1 sequence (Q8TDV5 whole entry): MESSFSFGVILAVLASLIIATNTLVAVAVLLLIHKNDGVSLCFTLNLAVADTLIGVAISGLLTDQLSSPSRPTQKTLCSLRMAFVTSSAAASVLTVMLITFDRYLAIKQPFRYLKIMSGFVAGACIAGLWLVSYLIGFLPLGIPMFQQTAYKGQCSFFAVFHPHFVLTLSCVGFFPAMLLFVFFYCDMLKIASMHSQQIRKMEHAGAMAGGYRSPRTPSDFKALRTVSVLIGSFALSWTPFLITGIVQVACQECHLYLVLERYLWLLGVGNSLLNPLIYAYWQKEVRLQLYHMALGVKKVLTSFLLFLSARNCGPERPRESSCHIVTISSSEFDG
Experiment: AlphaScreen cAMP Assay: MIN6 cells [Miyazaki J et al. Endocrinology. 1990 July; 127(1):126-32] are stably transfected with an expression vector for human GPR119 cDNA (Acc. No. NP_848566). Min-6/hGPR119 cells are cultured in DMEM, 10% FBS, 50 uM β-mercaptoethanol, 0.3 mg/mL Geniticin, 2 mM GlutaMAX at 37° C. 5% CO2. For the assay, the cells are seeded in Optiplates (white, 384-well, 160W-barcoded, TC, sterile with lid, Cat. No. #6007688 (Perkin Elmer); 10000 cells/well; 50 ul). The plates covered with lids are then incubated for 24 hours at 37° C./5% CO2. After the medium is aspirated from the wells completely, 10 ul of the test compound are added, the compounds are diluted using stimulating buffer (140 mM NaCl, 3.6 mM KCl, 0.5 mM NaH2PO4, 0.5 mM MgSO4, 1.5 mM CaCl2, 10 mM Hepes, 5 mM NaHCO3; pH 7.4. 0.5 mM IBMX and 0.1% BSA, the final DMSO concentration is 1%). After 45 minutes incubation at room temperature (approx. 20° C.), the cAMP concentrations are determined using the AlphaScreen cAMP Assay Kit (Cat. No. #6760625R from PerkinElmer). […]
Type: functional, cell-based

| Compound | EC50 [nM] |
| --- | --- |
| CC(C)(C)OC(=O)N1CCC(N(C(=O)c2ccc(-c3ccc(CS(C)(=O)=O)cc3)cc2)C2CC2)CC1 | 57 |
| O=C(OC1CCCCC1)N1CCC(N(C(=O)c2ccc(-c3cnco3)cc2)C2CC2)CC1 | 59 |
